Test results: patent US10376530B2, “Pharmaceutical composition for preventing or treating gleevec-resistant leukemia containing ginsenoside F1 or ginsenoside Rg3 as an active ingredient” (INTELLIGENT SYNTHETIC BIOLOGY CENTER, priority 2015, dated 2019)

Assays:
Assay type in all cases: cell-based, human
NK cells [1] = assay: CD107a level on NK cells in PBMC stimulated with K562 target cells, flow cytometry (Example 1); settings: PBMC (NK cell purity 95% or higher) treated with ginsenoside, then K562 target cells; FIG. 1
Experimental: To discover ginsenosides which can affect the cell-killing activity of NK cells, peripheral blood mononuclear cells (PBMC) separated from the blood were treated with 15 different kinds of (C-K, F2, PPD, Rb1, Rb2, Rc, Rd, Rg3, Rh2, F1, PPT, Re, Rg1, Rg2, and Rh1) ginsenosides, and then, the level of CD107a, which is a marker protein representing cell-killing activity and expressed on NK cells, was measured by flow cytometry (FIG. 1).
In particular, for the PBMC, those selected as follows were used. That is, the collected blood samples were transferred into Vacutainer Cell Preparation tubes (sodium heparin; BD Biosciences), centrifuged to recover a buffy coat, lymphocytes and monocyte band, and the recovered buffy coat was washed with PBS and applied to the human NK cell negative selection kit (Miltenyl Biotech) to isolate […].
Additionally, the CD107a level was measured as follows. […] Then, the NK cells were isolated by performing flow cytometry analysis using anti-CD3 antibody and anti-CD56 antibody, and the NK cells were immunostained using anti-CD107a antibody and the level of CD107a was measured.

NK cells [2] = assay: Intracellular IFN-γ expression by NK cells in PBMC stimulated with mutants of KCL-22 cells, flow cytometry (Example 2); settings: PBMC treated with ginsenoside, stimulated with equal number of mutants of KCL-22 cells, Brefeldin A; FIG. 2
Experimental: The 7 different kinds of ginsenosides discovered in Example 1 were treated and those ginsenosides which increased the expression level of the immune-stimulating factor (IFN-γ) by NK cells were selected (FIG. 2). In particular, the expression level of IFN-γ was measured as follows. That is, the PBMC samples isolated in Example 1 were treated with each ginsenoside, stimulated by treating with the equal number of target cells (mutants of KCL-22 cells), and then treated with Brefeldin A (GolgiPlug; BD Biosciences). Thereafter, a flow cytometry analysis was performed using fluochrome-conjugated anti-CD3 antibody and anti-CD56 antibody to identify NK cells present in PBMC, and then treated with Cytofix/Cytoperm (BD Biosicences) for perforation, and immunostained with fluochrome-conjugated anti-IFN-γ antibody to measure the intracellular level of IFN-γ(FIG. 2).

[3] = tested on: Gleevec-resistant mutants of KCL-22 cells; assay: Cell-killing activity of NK cells against europium-labeled target cells (Example 5); settings: E:T ratios 0.625:1, 1.25:1, 2.5:1, 5:1; DMSO control; FIGS. 5A and 5B
Experimental: The NK cells isolated in Example 1 was treated with ginsenoside F1 or ginsenoside Rg3, and incubated with target cells (Gleevec-resistant mutants of KCL-22 cells) labeled with an europium fluorescent dye at various E:T ratios (the ratio between the number of NK cells:the number of target cells=0.625:1, 1.25:1, 2.5:1, or 5:1), and thereby breaking down the target cells with the NK cells activated by the ginsenoside, and the europium fluorescent dye labeled to the target cells was released as a reaction solution. Upon completion of the reaction, the level of the europium fluorescent dye contained in the reaction solution was measured, and the cell-killing activity of the NK cells was compared (FIGS. 5A and 5B). In particular, NK cells treated with DMSO, instead of ginsenosides, were used as control group.

NK cells [4] = assay: CD107a level on primary NK cells incubated with mutants of KCL-22 cells (Example 3); settings: NK cells isolated from PBMC, incubated with mutants of KCL-22 cells (Gleevec-resistant leukemia cells); DMSO control; FIG. 3
Experimental: An attempt was made to select ginsenosides which induce the increase of the CD107a level on primary NK cells among the 4 different kinds of ginsenosides (Rg3, Rh2, F1, and Rg1) selected in Example 2.
Specifically, the NK cells isolated from the PBMC were activated by treating with the 4 different kinds of ginsenosides, then incubated with mutants of KCL-22 cells (i.e., Gleevec-resistant leukemia cells), and the level of CD107a on NK cells was measured and compared (FIG. 3). In particular, NK cells treated with DMSO, instead of ginsenosides, were used as a control group.

NK cells [5] = assay: Concentration-dependent change of CD107a level on NK cells (Example 4); settings: NK cells isolated from PBMC, 5 μM to 20 μM; DMSO control; FIGS. 4A and 4B
Experimental: NK cells isolated from PBMC were treated with ginsenoside F1 (which increases the selected CD107a level to the highest level) and Rg3 (which increases the selected CD107a level to the 2nd highest level), selected from Example 3, at various concentrations (5 μM to 20 μM), and the change in the CD107a level was measured (FIGS. 4A and 4B). In particular, NK cells treated with DMSO, instead of ginsenosides, were used as a control group.

SMILES | level of CD107a expression on NK cells (NK cells [1]) | expression level of IFN-γ by NK cells (NK cells [2]) | cell-killing activity of NK cells (europium fluorescent dye release) [3] | level of CD107a on primary NK cells (rank among the 4 ginsenosides) (NK cells [4]) | change in the CD107a level on NK cells by concentration (NK cells [5])
CC(C)=CCC[C@](C)(O[C@@H]1O[C@H](CO)[C@@H](O)[C@H](O)[C@H]1O)[C@H]1CC[C@]2(C)[C@@H]1[C@H](O)C[C@@H]1[C@@]3(C)CC[C@H](O[C@@H]4O[C@H](CO)[C@@H](O)[C@H](O)[C@H]4O)C(C)(C)[C@@H]3CC[C@]12C [F2] | increase the level of CD107a expression on NK cells | – | – | – | –
CC(C)=CCC[C@](C)(O[C@@H]1O[C@H](CO[C@@H]2O[C@H](CO)[C@@H](O)[C@H](O)[C@H]2O)[C@@H](O)[C@H](O)[C@H]1O)[C@H]1CC[C@]2(C)[C@@H]1[C@H](O)C[C@@H]1[C@@]3(C)CC[C@H](O[C@@H]4O[C@H](CO)[C@@H](O)[C@H](O)[C@H]4O[C@@H]4O[C@H](CO)[C@@H](O)[C@H](O)[C@H]4O)C(C)(C)[C@@H]3CC[C@]12C [Rb1] | increase the level of CD107a expression on NK cells | – | – | – | –
CC(C)=CCC[C@](C)(O[C@@H]1O[C@H](CO)[C@@H](O)[C@H](O)[C@H]1O)[C@H]1CC[C@]2(C)[C@@H]1[C@H](O)C[C@@H]1[C@@]3(C)CC[C@H](O)C(C)(C)[C@@H]3[C@@H](O[C@@H]3O[C@H](CO)[C@@H](O)[C@H](O)[C@H]3O)C[C@]12C [Rg1] | increase the level of CD107a expression on NK cells | increased | – | – | –
CC(C)=CCC[C@](C)(O)[C@H]1CC[C@]2(C)[C@@H]1[C@H](O)C[C@@H]1[C@@]3(C)CC[C@H](O)C(C)(C)[C@@H]3[C@@H](O[C@@H]3O[C@H](CO)[C@@H](O)[C@H](O)[C@H]3O[C@@H]3O[C@@H](C)[C@H](O)[C@@H](O)[C@H]3O)C[C@]12C [Rg2] | increase the level of CD107a expression on NK cells | – | – | – | –
CC(C)=CCC[C@](C)(O)[C@H]1CC[C@]2(C)[C@@H]1[C@H](O)C[C@@H]1[C@@]3(C)CC[C@H](O[C@@H]4O[C@H](CO)[C@@H](O)[C@H](O)[C@H]4O)C(C)(C)[C@@H]3CC[C@]12C [Rh2] | increase the level of CD107a expression on NK cells | increased | – | – | –
CC(C)=CCC[C@](C)(O)[C@H]1CC[C@]2(C)[C@@H]1[C@H](O)C[C@@H]1[C@@]3(C)CC[C@H](O[C@@H]4O[C@H](CO)[C@@H](O)[C@H](O)[C@H]4O[C@@H]4O[C@H](CO)[C@@H](O)[C@H](O)[C@H]4O)C(C)(C)[C@@H]3CC[C@]12C [ginsenoside Rg3, 20(S)-protopanaxadiol-3-0-β-D-glucopyranosyl(1,2)-β-D-glucopyranoside] | increase the level of CD107a expression on NK cells | increased | promote the cell-killing activity of NK cells against mutants of KCL-22 cells | 2nd highest | increase the expression levels of CD107a on NK cells in a concentration-dependent manner
